According to US8609362B2, “G-proteins” (Givaudan SA, priority 2002, dated 2013):

Experiments:
Type in all cases: cell-based
G-protein only [1] = test: Fluo-4 calcium assay, G-protein only control (TAS2R44 cell line); settings: Gα16gustducin44, ligand 10 μM
Excerpt: (§1) The following results were obtained:

G-protein only [2] = test: Fluo-4 calcium assay, G-protein only control (TAS2R43 cell line); settings: Gα16gustducin44, ligand 10 μM
Excerpt: as §1

human TAS2R43 = biological target: T1, human TAS2R43 (Homo sapiens, UniProt P59537); test: Fluo-4 calcium assay, tetracycline-inducible cells stably expressing human TAS2R43 and G16gust44; settings: ligand 10 μM
T1 construct: expressed in transfected cells
T1 sequence (P59537 1-309): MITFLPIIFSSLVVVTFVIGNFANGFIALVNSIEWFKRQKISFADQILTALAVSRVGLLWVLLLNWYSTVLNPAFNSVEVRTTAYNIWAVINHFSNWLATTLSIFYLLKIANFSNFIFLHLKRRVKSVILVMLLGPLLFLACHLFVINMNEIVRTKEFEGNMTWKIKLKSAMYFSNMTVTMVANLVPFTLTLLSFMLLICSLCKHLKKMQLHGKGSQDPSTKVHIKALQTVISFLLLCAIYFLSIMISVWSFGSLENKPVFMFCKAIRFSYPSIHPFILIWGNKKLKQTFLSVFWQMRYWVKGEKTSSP
Excerpt: as §1

human TAS2R44 = biological target: T2, human TAS2R44 (Homo sapiens, UniProt P59538); test: Fluo-4 calcium assay, tetracycline-inducible cells stably expressing human TAS2R44 and G16gust44; settings: ligand 10 μM
T2 construct: expressed in transfected cells
T2 sequence (P59538 1-309): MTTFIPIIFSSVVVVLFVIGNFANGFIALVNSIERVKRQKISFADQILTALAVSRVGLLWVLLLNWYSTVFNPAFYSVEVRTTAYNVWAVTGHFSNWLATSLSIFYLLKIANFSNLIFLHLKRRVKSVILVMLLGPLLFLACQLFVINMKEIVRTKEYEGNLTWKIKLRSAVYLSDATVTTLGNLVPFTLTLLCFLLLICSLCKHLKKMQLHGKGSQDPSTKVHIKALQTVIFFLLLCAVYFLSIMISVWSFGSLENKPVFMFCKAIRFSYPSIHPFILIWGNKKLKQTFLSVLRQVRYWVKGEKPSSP
Excerpt: as §1

## COc1cccc2c1cc([N+](=O)[O-])c1c(C(=O)O)cc3c(c12)OCO3 [aristolochic acid]
G-protein only [1]
  increase in mean fluorescence over baseline following ligand addition: 5700 RFUs
G-protein only [2]
  increase in mean fluorescence over baseline following ligand addition: 3955 RFUs
Human TAS2R43; G-protein + human TAS2R43, Gα16gustducin44
  increase in mean fluorescence over baseline following ligand addition: 26766 RFUs
Human TAS2R43; HEK293 T-Rex cells, TAS2R43, G16-gustducin 44
  fluorescence signal (in words): robust fluorescence signal
Human TAS2R44; G-protein + human TAS2R44, Gα16gustducin44
  increase in mean fluorescence over baseline following ligand addition: 17254 RFUs
Human TAS2R44; HEK293 T-Rex cells, TAS2R44, G16-gustducin 44
  fluorescence signal (in words): robust fluorescence signal
